Test results reported in US9828339B2, “Biphenyl derivatives and methods for preparing same” (DONG-A ST CO., LTD, priority 2013, dated 2017).

What was measured:
[1] = biological target: T1, human muscarinic M3 receptor (Homo sapiens (Human), UniProt P20309); test: Binding assay on human muscarinic M3 receptor ([3H]-methyl scopolamine displacement); details: membranes overexpressing human M3 receptor, Ki from IC50 by Cheng-Prusoff, read-out: Binding Affinity to M3 Receptor, Ki
How it was run: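 Displacement of [3H]-methyl scopolamine from membranes overexpressing human M3, in Tris-HCl, 25 °C, 120 min; filter-bound radioactivity counted. Nonspecific binding with 5 μM atropine; Ki from IC50 via Cheng-Prusoff.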

[2] = biological target: T1, human muscarinic M3 receptor; test: Antagonism assay on human muscarinic M3 receptor (carbachol-induced intracellular calcium, FLIPR Calcium 5, transfected Cos-7 cells); assay type: cell-based; details: functional inhibitory constant; carbachol-induced intracellular calcium in Cos-7 cells transfected with human M3 receptor
Method: [Experimental Example 2] Antagonism Assay on Human Muscarinic M3 Receptor
The antagonism assay for various compounds of the present invention was conducted on antagonism to human M3 receptor in Cos-7 cells that was transfected with plasmid coding human muscarinic M3 receptor. Test compounds in various concentrations were pre-treated to the cells for 3 minutes, and then the changes of intracellular calcium were measured after treating the same with carbachol (i.e. muscarinic receptor agonist). The FLIPR® Calcium 5 assay (Molecular Devices) and Flex3 device (Molecular Devices) were used to measure concentration of calcium. Amounts of calcium before and after carbachol treatment were set as 0% and 100% respectively. Inhibition rates (%) by the compounds for increase in intracellular calcium by carbachol were calculated. The antagonistic potency of the test compounds on human muscarinic M3 receptor was calculated as the functional inhibitory constant (Ki), which can be calculated from concentration (IC50) of compound inhibiting 50% of activity of carbachol according to Cheng and Prusoff equation.

[3] = test system: rhythmic bladder contractions; test: Rhythmic bladder contractions in rats (in vivo); design: species or system rat; details: 0.3 mpk, intravenous, female Sprague-Dawley rats; amplitude reduction of bladder contractions
From the text: [Experimental Example 3] Experiment on Rhythmic Bladder Contractions in Rats (In Vivo)
Female Sprague-Dawley rat was halothane-anesthetized, and a polyethylene catheter was inserted through urethra lay down straight and fixed. Urine in bladder was excreted through the catheter by gently massaging abdomen of the rat, and then removed. A three-way stopcock was connected to the catheter and a pressure transducer was connected to one side of the three-way stopcock to measure pressure, and a syringe was installed at the other side to inject 37° C. of saline solution. The saline solution was slowly injected until regular bladder contractions occurred repeatedly. When regular bladder contractions occurred stably, test compounds were administered intravenously through the tail vein. Inhibitory effect of the test compounds was evaluated by measuring degree of amplitude reduction of bladder contractions.

Sprague-Dawley (SD) rats = test: Acute toxicity test for oral administration on rats; assay type: in vivo, rat; details: observed for 4 days
Method: [Experimental Example 4] Acute Toxicity Test for Oral Administration on Rats
In order to confirm acute toxicity of the compounds of the present invention, following experiment was conducted. A low-dose group, a medi-dose group and a high-dose group, wherein the compounds of Examples were administered 100 mg/kg, 300 mg/kg and 1000 mg/kg respectively, were prepared. Methyl cellulose solution (0.5%) was prepared and orally administered to 3 rats of each group (i.e. both sexes of 6-week old Sprague-Dawley (SD) rats; male rats in 142-143 g; female rats in 126.3-127.3 g) in a volume of 10 mL/kg. Mortality, clinical signs and weight and the like were measured for 4 days, and discovered approximate lethal dose (ALD) therefrom were explained in Table 30 below.

T1 sequence (P20309 whole entry): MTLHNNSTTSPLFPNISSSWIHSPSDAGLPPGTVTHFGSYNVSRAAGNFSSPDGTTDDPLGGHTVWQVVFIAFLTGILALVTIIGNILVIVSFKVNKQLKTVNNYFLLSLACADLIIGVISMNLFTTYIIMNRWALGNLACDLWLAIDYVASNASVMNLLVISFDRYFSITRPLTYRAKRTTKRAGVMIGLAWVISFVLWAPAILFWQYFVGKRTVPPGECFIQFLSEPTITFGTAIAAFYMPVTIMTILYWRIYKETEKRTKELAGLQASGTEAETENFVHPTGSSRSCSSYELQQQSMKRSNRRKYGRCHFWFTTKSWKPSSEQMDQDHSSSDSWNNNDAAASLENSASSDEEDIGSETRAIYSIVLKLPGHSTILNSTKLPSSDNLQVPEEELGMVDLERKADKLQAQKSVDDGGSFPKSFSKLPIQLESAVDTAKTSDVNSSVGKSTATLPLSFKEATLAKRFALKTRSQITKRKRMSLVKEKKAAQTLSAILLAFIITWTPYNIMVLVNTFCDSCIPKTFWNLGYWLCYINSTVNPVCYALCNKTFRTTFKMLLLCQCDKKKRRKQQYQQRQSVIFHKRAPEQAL

Ki [1] [nM] | Ki [2] [nM] | SMILES | Inhibition of Rhythmic bladder contraction in rats [3] [%] | Approximate Lethal Dose (ALD) (Sprague-Dawley (SD) rats) [mg/kg]
8.69 | 6.02 | CN1CCCC1CCOC(=O)Nc1ccccc1-c1cc(F)cc(F)c1 (stereo not shown) [Example 2, 2-(1-methylpyrrolidin-2-yl)ethyl(3′,5′-difluoro-[1,1′-biphenyl]-2-yl)carbamate] | 20.1 ± 3.1 | –
2.93 | 3.41 | CN1CCCC1CCOC(=O)Nc1ccccc1-c1cccc(F)c1 (stereo not shown) [Example 4, 2-(1-methylpyrrolidin-2-yl)ethyl(3′-fluoro-[1,1′-biphenyl]-2-yl)carbamate] | 22.3 ± 4.9 | –
1.33 | 3.02 | CN1CCCC1CCOC(=O)Nc1ccccc1-c1cccc(Cl)c1 (stereo not shown) [Example 8, 2-(1-methylpyrrolidin-2-yl)ethyl(3′-chloro-[1,1′-biphenyl]-2-yl)carbamate] | 23.2 ± 2.3 | –
4.17 | 1.9 | CN1CCCC1CCOC(=O)Nc1ccc(F)cc1-c1ccc(F)cc1 (stereo not shown) [Example 19, 2-(1-methylpyrrolidin-2-yl)ethyl(4′,5-difluoro-[1,1′-biphenyl]-2-yl)carbamate] | 12.8 ± 3.0 | –
3.79 | 2.39 | Cc1cccc(-c2cc(F)ccc2NC(=O)OCCC2CCCN2C)c1 (stereo not shown) [Example 22, 2-(1-methylpyrrolidin-2-yl)ethyl(5-fluoro-3′-methyl-[1,1′-biphenyl]-2-yl)carbamate] | 16.7 ± 1.7 | –
19.6 | 2.64 | CN1CCCC1CCOC(=O)Nc1ccccc1-c1ccccc1F (stereo not shown) [Example 34, 2-(1-methylpyrrolidin-2-yl)ethyl(2′-fluoro-[1,1′-biphenyl]-2-yl)carbamate] | 20.1 ± 1.8 | –
10 | 1.22 | CN1CCCC1CCOC(=O)Nc1ccc(F)cc1-c1cc(F)cc(Cl)c1 (stereo not shown) [Example 52, 2-(1-methylpyrrolidin-2-yl)ethyl (3′-chloro-5,5′-difluoro-[1,1′-biphenyl]-2-yl)carbamate] | 10.8 ± 0.8 | –
6.42 | 2.38 | Cc1ccc(-c2cc(F)ccc2NC(=O)OCCC2CCCN2C)cc1C (stereo not shown) [Example 59, 2-(1-methylpyrrolidin-2-yl)ethyl(5-fluoro-3′,4′-dimethyl-[1,1′-biphenyl]-2-yl)carbamate] | 11.6 ± 1.9 | –
6.98 | 3.06 | CN1CCCC1CCOC(=O)Nc1ccc(Cl)cc1-c1ccccc1 (stereo not shown) [Example 66, 2-(1-Methylpyrrolidin-2-yl)ethyl (5-chloro-[1,1′-biphenyl]-2-yl)carbamate] | 12.0 ± 1.4 | –
8.17 | 1.95 | CN1CCCC1CCOC(=O)Nc1ccc(Cl)cc1-c1cccc(Cl)c1 (stereo not shown) [Example 70, 2-(1-Methylpyrrolidin-2-yl)ethyl(3′,5-dichloro-[1,1′-biphenyl]-2-yl)carbamate] | 9.7 ± 4.1 | –
4.84 | 4.75 | CN1CCCC1CCOC(=O)Nc1ccc(Cl)cc1-c1ccc(F)c(Cl)c1 (stereo not shown) [Example 73, 2-(1-Methylpyrrolidin-2-yl)ethyl(3′,5-dichloro-4′-fluoro-[1,1′-biphenyl]-2-yl)carbamate] | 10.0 ± 1.0 | –
6.27 | 0.75 | CN1CC[C@@H](COC(=O)Nc2ccc(F)cc2-c2cc(F)cc(F)c2)C1 [Example 95, (R)-(1-methylpyrrolidin-3-yl)methyl (3′,5,5′-trifluoro-[1,1′-biphenyl]-2-yl)carbamate] | 15.7 ± 0.8 | –
1.6 | 0.34 | CN1CC[C@@H](COC(=O)Nc2ccccc2-c2cccc(Cl)c2)C1 [Example 117, (R)-(1-methylpyrrolidin-3-yl)methyl(3′-chloro-[1,1′-biphenyl]-2-yl)carbamate] | 15.4 ± 0.1 | –
8.12 | 2.86 | CN1CC[C@H](COC(=O)Nc2ccc(F)cc2-c2ccc(F)cc2)C1 [Example 124, (S)-(1-methylpyrrolidin-3-yl)methyl(4′,5-difluoro-[1,1′-biphenyl]-2-yl)carbamate] | 21.2 ± 0.7 | –
12 | 1.86 | CN1CC[C@@H](COC(=O)Nc2ccccc2-c2cc(Cl)cc(Cl)c2)C1 [Example 131, (R)-(1-methylpyrrolidin-3-yl)methyl(3′,5′-dichloro-[1,1′-biphenyl]-2-yl)carbamate] | 17.8 ± 2.5 | –
14.3 | 2.97 | CN1CC[C@@H](COC(=O)Nc2ccc(Cl)cc2-c2cccc(Cl)c2)C1 [Example 145, (R)-(1-methylpyrrolidin-3-yl)methyl(3′,5-dichloro-[1,1′-biphenyl]-2-yl)carbamate] | 13.1 ± 3.0 | –
6.85 | 1.57 | CN1CC[C@@H](COC(=O)Nc2ccc(Cl)cc2-c2ccc(F)c(Cl)c2)C1 [Example 146, (R)-(1-methylpyrrolidin-3-yl)methyl(3′,5-dichloro-4′-fluoro-[1,1′-biphenyl]-2-yl)carbamate] | 8.2 ± 2.9 | –
9.04 | 1.33 | CN1CCC[C@H]1COC(=O)Nc1ccccc1-c1ccc(Cl)c(Cl)c1 [Example 166, (S)-(1-methylpyrrolidin-2-yl)methyl(3′,4′-dichloro-[1,1′-biphenyl]-2-yl)carbamate] | 10.2 ± 1.7 | –
3.29 | 0.29 | CN1CCC[C@H]1COC(=O)Nc1cc(F)c(F)cc1-c1ccc(F)c(Cl)c1 [Example 181, (S)-(1-methylpyrrolidin-2-yl)methyl(3′-chloro-4,4′,5-trifluoro-[1,1′-biphenyl]-2-yl)carbamate] | 18.1 ± 2.6 | –
6.3 | 0.58 | CN1CC[C@@H](COC(=O)Nc2ccc(F)cc2-c2cccc(F)c2)C1 [Example 194, (R)-(1-methylpyrrolidin-3-yl)methyl(3′,5-difluoro-[1,1′-biphenyl]-2-yl)carbamate] | 24.6 ± 2.6 | –
13.4 | 3.52 | Cc1ccc(NC(=O)OC[C@@H]2CCCN2C)c(-c2cccc(F)c2)c1 [Example 207, (S)-(1-methylpyrrolidin-2-yl)methyl(3′-fluoro-5-methyl-[1,1′-biphenyl]-2-yl)carbamate] | 18.2 ± 3.7 | –

SMILES | Ki [1] [nM] | Ki [2] [nM] | Inhibition of Rhythmic bladder contraction in rats [3] [%] | Approximate Lethal Dose (ALD) (Sprague-Dawley (SD) rats) [mg/kg]
Cc1cccc(-c2ccccc2NC(=O)OCCC2CCCN2C)c1 (stereo not shown) [Example 15, 2-(1-methylpyrrolidin-2-yl)ethyl(3′-methyl-[1,1′-biphenyl]-2-yl)carbamate] | 2.27 | 4.1 | 25.6 ± 2.2 | >1000
CN1CC[C@H](COC(=O)Nc2ccc(F)cc2-c2ccc(Cl)c(Cl)c2)C1 [Example 128, (S)-(1-methylpyrrolidin-3-yl)methyl(3′,4′-dichloro-5-fluoro-[1,1′-biphenyl]-2-yl)carbamate] | 3.41 | 1.2 | 15.1 ± 3.4 | –
CN1CC[C@H](COC(=O)Nc2ccc(F)cc2-c2cc(F)cc(Cl)c2)C1 [Example 129, (S)-(1-methylpyrrolidin-3-yl)methyl(3′-chloro-5,5′-difluoro-[1,1′-biphenyl]-2-yl)carbamate] | 12.6 | 6.24 | 15.7 ± 1.4 | –
CN1CC[C@@H](COC(=O)Nc2ccc(F)cc2-c2cc(F)cc(Cl)c2)C1 [Example 142, (R)-(1-methylpyrrolidin-3-yl)methyl(3′-chloro-5,5′-difluoro-[1,1′-biphenyl]-2-yl)carbamate] | 4.88 | 1.04 | 15.1 ± 3.4 | –
